Calls of active or inactive are those of the source.
Assays:
Trypsin = Trypsin (Sus scrofa, UniProt P00761); test: trypsin protease activity blockade – biochemical, quenched peptide fluorescence, cherry-pick, selectivity assay for Rce1 protease inhibitor project, dose response (AID 488789)
[1] = biological target: T1, Heat shock factor protein 1 (Mus musculus, UniProt P38532); test: enhancement of HSF1-driven luciferase signal – cell-based, NIH3T3, luminescence, dose retest, confirmation (AID 435004); format: functional;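 also: stress induced by proteasome inhibitor MG132 added 30 min after compound; luciferase reporter driven by HSF1 response element in NIH3T3 cells; actives raise luminescence as potentiators of the MG132 stress response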
T1 sequence (P38532 whole entry): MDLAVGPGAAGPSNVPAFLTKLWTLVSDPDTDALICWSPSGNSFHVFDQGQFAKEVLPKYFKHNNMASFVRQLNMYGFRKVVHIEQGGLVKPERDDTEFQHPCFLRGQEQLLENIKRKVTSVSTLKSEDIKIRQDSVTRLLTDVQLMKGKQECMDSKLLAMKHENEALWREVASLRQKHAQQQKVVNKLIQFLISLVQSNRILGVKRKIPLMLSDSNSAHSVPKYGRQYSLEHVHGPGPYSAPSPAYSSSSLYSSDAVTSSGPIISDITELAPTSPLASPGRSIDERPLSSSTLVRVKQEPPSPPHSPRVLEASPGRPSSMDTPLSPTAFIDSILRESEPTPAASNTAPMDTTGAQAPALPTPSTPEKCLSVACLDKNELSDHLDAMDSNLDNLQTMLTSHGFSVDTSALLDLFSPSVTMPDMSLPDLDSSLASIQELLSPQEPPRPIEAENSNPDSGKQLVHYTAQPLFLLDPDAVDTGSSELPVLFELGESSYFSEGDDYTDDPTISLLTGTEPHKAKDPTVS

CAAX prenyl protease 2 = biological target: T2, CAAX prenyl protease 2 (Homo sapiens, UniProt Q9Y256); test: inhibition of Ras-converting CAAX protease Rce1 – biochemical, yeast membranes, quenched-peptide fluorescence, cherry-pick, dose response (AID 588849)
T2 sequence (Q9Y256 whole entry): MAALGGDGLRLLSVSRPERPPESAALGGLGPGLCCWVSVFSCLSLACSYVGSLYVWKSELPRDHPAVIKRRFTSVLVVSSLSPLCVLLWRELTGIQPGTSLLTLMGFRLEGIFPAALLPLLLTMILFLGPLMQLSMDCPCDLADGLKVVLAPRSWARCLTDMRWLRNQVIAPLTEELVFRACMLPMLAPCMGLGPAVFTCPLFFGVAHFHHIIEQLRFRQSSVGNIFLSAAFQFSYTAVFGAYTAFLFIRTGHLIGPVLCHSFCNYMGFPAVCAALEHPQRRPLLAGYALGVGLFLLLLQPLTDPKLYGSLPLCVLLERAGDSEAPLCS

Vero [2] = test: mammalian cell viability reduction – secondary assay, cytotoxicity control for West Nile virus antiviral project, dose response (AID 1650); format: functional, Chlorocebus sabaeus
[3] = viability of PTEN-deleted HCT116 cells – cell-based, HCT116 PTEN knockout, dose response (AID 1047); format: functional;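 also: HCT116 colon tumor cells with PTEN knocked out; cells exposed to compound for 60 hours before readout; potency for loss of cell viability measured by luminescence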
[4] = viability of HCT116 lacking mutant beta-catenin – cell-based, human colon tumor, dose response (AID 1045); format: functional;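 also: HCT116 colon tumor cells with beta catenin knocked out; cells exposed to compound for 60 hours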
[5] = biological target: Induced myeloid leukemia cell differentiation protein Mcl-1 (Homo sapiens, UniProt Q07820); format: functional
[6] = THP-1 cell cytotoxicity, dose response, cytotoxicity control for non-replicating M. tuberculosis project (AID 489025); format: functional
[7] = HepG2 cell cytotoxicity, dose response, cytotoxicity control for non-replicating M. tuberculosis project (AID 489018); format: functional; conditions: Mycobacterium tuberculosis
[8] = Vero E6 cell cytotoxicity, dose response, cytotoxicity control for non-replicating M. tuberculosis project, secondary assay (AID 492998); format: functional, VeroE6; conditions: Vero C1008
cells = format: functional
Beta-galactosidase = Beta-galactosidase (Escherichia coli, UniProt Q8VNN2); test: PubChem AID 485352; format: functional
[9] = biological target: T3, Type-1 angiotensin II receptor (Homo sapiens, UniProt P30556); test: antagonism of angiotensin II type 1 receptor – cell-based, uHTS hits, selectivity assay for APJ receptor antagonist project, dose response (AID 463214); format: functional;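 also: antagonist potency against angiotensin II stimulated AT1 response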
T3 sequence (P30556 whole entry): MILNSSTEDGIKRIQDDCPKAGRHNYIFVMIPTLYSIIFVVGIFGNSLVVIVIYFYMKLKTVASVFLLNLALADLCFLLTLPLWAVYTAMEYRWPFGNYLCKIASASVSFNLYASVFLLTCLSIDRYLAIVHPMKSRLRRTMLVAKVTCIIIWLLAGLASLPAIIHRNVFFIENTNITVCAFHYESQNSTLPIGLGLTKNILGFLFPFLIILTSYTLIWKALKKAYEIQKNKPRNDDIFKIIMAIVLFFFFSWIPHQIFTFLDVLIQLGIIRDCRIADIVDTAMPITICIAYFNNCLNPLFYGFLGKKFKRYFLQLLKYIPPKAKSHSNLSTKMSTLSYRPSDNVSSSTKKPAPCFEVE

HEK293 = test: EBV LMP1 TES2 canonical NF-kB signalling blockers – cell-based, HEK293, luciferase, cherry-pick, dose response (AID 588343); format: functional; conditions: Homo sapiens
Cytochrome P450 1A2 = biological target: T4, Cytochrome P450 1A2 (Homo sapiens, UniProt P05177);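 also: PubChem cytochrome P450 panel assay, CYP1A2 panel member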
T4 sequence (P05177 whole entry): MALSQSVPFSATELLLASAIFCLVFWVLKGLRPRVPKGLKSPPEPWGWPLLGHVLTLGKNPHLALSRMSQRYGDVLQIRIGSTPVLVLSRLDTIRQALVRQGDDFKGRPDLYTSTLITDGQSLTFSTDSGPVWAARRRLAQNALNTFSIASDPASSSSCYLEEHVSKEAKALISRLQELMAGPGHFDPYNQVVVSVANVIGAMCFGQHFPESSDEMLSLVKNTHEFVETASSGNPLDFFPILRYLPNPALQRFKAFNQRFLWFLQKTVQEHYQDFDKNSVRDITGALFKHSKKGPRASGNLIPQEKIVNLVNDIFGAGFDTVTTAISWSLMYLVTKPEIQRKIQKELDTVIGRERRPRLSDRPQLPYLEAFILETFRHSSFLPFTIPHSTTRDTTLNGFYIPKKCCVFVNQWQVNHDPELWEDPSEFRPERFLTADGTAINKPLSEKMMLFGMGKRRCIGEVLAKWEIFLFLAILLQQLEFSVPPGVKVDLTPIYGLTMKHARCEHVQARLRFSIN

Cytochrome P450 3A4 = Cytochrome P450 3A4 (Homo sapiens, UniProt P08684);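 also: CYP3A4 tested as one member of a cytochrome P450 panel screen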
[10] = luciferase reporter signal suppression in cells – H4 neuroglioma cells, luminescence, dose response (AID 1990); format: functional, cell-based
[11] = Luminescence Cell-Based Dose Response HTS to Identify Inhibitors of 5'UTR Stem-Loop Driven Prion Protein mRNA Translation in H4 Neuroglioblastoma Cells. [Related pubchem assays: 1827 (Project Summary), 1813 (Primary HTS)]; format: functional
[12] = alpha-synuclein stem-loop luciferase translation blockers – H4 neuroglioma cells, luminescence, confirmation (AID 1988); format: functional, cell-based
Vero [13] = test: cells; format: functional, cell-based; conditions: Chlorocebus sabaeus
BJ = test: growth inhibition of engineered Ras-driven BJ cells – cell-based, alamar blue fluorescence, cherrypicked samples, dose response (AID 2631); format: functional; conditions: Homo sapiens;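 also: confirmatory dose-response assay in RAS-dependent BJ fibroblasts engineered with TERT, LT and ST, with cytotoxicity read by fluorescence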
Vero [14] = test: cells; format: functional; conditions: Chlorocebus sabaeus
Paired box protein Pax-8 = Paired box protein Pax-8 (Homo sapiens, UniProt Q06710); test: PAX8 transcriptional activity inhibition in RMG-I – RMG-I cells, luciferase, cherry-pick, dose response (AID 687027); format: functional, cell-based;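 also: luciferase reporter driven by Pax8 target thyroperoxidase promoter measured by SteadyGlo luminescence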
Cytochrome P450 2C9 = Cytochrome P450 2C9 (Homo sapiens, UniProt P11712)
[15] = NIH-3T3 fibroblast cytotoxicity, dose response, cytotoxicity control, cell-based, fluorescence, Alamar Blue, secondary assay (AID 2327); format: functional;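 also: NIH-3T3 mouse fibroblasts cultured with fluconazole at 8 µg/mL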
[16] = tested on: Streptococcus sp. 'group A'; test: Streptococcus pyogenes SK(-)GAS viability under kanamycin – luminescence, BacTiterGlo, confirmation, counter-screen for streptokinase expression inhibitor project, dose response (AID 1900); format: functional, organism-based; conditions: read-out: EC50
[17] = fluconazole-exposed Candida albicans growth modulators – fluorescence, retest, confirmation (AID 2467); format: functional, cell-based
Streptococcus = test: GAS UMAA2166 growth inhibition – luminescence, BacTiterGlo, counter-screen for streptokinase expression inhibitor project, dose response (AID 1915); format: functional, organism-based;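 also: potency for reduction of bacterial viability or growth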
[18] = biological target: T5, Microphthalmia-associated transcription factor (Homo sapiens, UniProt O75030); test: reducers of TRPM1 reporter luminescence, concentration series – cell-based, SK-MEL-5, cherry-picked, set 3, MITF inhibitor project, dose response (AID 493073); format: functional;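 also: SK-MEL-5 melanoma cells with luciferase driven by the MITF target TRPM1 promoter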
T5 sequence (O75030 whole entry): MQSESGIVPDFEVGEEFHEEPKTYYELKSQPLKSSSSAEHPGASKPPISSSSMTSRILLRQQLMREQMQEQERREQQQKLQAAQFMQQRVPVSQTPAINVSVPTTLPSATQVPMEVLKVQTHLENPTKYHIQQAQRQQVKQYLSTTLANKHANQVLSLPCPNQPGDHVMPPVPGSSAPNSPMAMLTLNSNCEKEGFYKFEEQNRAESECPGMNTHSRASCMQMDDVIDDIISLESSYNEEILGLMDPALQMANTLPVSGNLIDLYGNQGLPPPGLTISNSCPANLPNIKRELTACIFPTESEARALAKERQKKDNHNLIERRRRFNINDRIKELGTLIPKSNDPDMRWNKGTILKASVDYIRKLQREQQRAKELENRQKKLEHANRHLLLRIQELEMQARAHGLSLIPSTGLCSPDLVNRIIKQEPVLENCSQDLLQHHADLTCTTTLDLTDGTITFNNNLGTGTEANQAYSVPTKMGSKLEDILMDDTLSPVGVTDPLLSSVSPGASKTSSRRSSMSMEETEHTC

H9c2 = test: cells; format: functional, cell-based; conditions: Rattus norvegicus, H9c2, Myocardium

Sequence of Cytochrome P450 3A4 (P08684 whole entry): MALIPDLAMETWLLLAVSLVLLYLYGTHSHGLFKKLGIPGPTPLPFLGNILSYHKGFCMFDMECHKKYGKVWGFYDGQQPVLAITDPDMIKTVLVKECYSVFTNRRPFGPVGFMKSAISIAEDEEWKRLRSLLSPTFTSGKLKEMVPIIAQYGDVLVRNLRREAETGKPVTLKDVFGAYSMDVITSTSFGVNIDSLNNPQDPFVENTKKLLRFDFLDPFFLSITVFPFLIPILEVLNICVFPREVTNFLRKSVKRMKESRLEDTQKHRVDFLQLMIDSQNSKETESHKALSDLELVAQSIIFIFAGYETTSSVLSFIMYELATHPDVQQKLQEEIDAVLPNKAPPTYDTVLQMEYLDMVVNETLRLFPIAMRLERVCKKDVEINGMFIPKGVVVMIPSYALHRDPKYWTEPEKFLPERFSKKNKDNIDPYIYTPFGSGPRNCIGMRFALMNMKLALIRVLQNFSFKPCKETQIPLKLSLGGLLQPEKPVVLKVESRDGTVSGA
Sequence of Beta-galactosidase (Q8VNN2 whole entry): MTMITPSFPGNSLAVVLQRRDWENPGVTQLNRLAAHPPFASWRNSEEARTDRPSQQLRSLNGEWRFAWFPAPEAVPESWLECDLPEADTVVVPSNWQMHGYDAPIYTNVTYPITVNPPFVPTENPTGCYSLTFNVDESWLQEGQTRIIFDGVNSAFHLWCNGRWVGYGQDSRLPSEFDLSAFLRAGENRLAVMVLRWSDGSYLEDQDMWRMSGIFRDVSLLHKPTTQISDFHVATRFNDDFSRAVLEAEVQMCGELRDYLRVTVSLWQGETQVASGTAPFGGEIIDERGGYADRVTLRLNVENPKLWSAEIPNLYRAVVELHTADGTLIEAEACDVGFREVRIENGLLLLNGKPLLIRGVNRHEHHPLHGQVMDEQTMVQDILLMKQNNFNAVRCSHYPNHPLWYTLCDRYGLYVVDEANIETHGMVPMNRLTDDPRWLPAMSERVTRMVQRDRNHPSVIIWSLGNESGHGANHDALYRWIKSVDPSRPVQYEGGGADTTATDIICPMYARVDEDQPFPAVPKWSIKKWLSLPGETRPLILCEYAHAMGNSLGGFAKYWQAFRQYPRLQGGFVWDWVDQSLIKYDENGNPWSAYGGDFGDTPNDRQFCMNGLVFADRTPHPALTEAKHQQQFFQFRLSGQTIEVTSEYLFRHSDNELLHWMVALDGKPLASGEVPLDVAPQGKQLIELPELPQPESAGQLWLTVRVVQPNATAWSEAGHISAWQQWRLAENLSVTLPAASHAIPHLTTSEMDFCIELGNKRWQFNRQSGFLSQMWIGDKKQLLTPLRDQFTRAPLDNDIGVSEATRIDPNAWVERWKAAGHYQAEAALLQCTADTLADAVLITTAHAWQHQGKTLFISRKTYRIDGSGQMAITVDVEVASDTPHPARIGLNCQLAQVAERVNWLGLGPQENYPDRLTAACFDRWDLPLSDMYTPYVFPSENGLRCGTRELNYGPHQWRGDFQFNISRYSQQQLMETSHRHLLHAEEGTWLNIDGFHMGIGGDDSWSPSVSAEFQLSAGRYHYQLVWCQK
Sequence of Trypsin (P00761 whole entry): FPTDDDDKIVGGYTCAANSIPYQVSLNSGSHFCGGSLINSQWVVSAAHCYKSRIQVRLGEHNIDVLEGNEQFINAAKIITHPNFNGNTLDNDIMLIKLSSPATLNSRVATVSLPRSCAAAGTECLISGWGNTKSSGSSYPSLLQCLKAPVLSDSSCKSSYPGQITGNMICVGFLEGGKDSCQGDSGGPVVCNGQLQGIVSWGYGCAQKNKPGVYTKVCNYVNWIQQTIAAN
Sequence of Cytochrome P450 2C9 (P11712 whole entry): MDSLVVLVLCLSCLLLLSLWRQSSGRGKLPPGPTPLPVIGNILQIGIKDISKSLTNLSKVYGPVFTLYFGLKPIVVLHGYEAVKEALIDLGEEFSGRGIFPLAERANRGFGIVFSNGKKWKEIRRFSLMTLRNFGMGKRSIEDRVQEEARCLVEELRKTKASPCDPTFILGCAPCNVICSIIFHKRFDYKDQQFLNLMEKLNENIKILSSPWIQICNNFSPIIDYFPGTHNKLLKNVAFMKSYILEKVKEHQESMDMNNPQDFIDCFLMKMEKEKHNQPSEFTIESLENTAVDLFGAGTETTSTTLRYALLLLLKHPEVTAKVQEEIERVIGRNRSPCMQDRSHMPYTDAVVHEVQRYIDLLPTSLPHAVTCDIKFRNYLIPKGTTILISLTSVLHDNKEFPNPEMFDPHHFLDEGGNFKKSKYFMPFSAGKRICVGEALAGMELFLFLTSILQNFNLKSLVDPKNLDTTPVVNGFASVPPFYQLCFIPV
Sequence of Induced myeloid leukemia cell differentiation protein Mcl-1 (Q07820 whole entry): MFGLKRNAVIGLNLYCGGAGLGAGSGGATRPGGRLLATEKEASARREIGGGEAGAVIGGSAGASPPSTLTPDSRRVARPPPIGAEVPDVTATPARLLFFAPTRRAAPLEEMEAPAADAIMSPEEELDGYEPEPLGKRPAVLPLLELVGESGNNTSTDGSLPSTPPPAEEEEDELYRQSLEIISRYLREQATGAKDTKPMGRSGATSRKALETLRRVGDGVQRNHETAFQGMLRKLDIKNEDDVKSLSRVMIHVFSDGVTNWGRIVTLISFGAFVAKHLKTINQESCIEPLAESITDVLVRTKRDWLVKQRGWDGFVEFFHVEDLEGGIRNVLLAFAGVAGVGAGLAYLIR
Sequence of Paired box protein Pax-8 (Q06710 whole entry): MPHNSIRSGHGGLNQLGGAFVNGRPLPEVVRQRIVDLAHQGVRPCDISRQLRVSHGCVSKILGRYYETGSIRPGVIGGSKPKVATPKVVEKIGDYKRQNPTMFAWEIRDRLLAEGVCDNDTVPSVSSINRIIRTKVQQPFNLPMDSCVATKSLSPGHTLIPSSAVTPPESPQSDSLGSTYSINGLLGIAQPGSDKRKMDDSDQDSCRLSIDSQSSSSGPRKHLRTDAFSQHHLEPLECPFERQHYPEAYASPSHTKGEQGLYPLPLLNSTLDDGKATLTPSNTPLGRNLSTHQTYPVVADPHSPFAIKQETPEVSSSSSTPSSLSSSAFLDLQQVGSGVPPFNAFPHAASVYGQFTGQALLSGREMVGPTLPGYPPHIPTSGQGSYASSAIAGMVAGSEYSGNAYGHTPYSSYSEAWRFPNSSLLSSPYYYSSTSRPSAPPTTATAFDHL

## COc1cc2c(cc1OC)C(CCc1ccccc1)=NCC2
Trypsin
  AC50: 9.41 µM (active)
[1]
  EC50: > 260 µM (inactive)
CAAX prenyl protease 2
  AC50: 6.03 µM (active)

## Cc1cc2ncn(/N=C/c3ccc([N+](=O)[O-])s3)c2cc1C
Vero [2]; Chlorocebus sabaeus, Vero
  CC50: 18.5 µM (active)
[3]
  EC50: 3.36 µM (active)
[4]
  EC50: 3.33 µM (active)
[5]
  IC50: 3.27 µM (active)
[6]
  CC50: 6.75 µM (active)
[7]
  CC50: 14 µM (active)
[8]
  CC50: 17.1 µM (active)
cells
  IC50: 1.25 µM (active)

## O=C(CCC(=O)OCC(=O)c1cccc([N+](=O)[O-])c1)Nc1ccccc1Cl
Beta-galactosidase
  EC50: > 40 µM (inactive)
[9]
  IC50: 15 µM (active)

## CCN1CCN(Cc2c(O)ccc3c(=O)c(-c4ccccc4OC)coc23)CC1
Trypsin
  AC50: 16 µM (active)
CAAX prenyl protease 2
  AC50: 5.2 µM (active)

## CCOc1ccccc1C(=O)N[C@H](C(=O)OCc1cc([N+](=O)[O-])cc2c1OCOC2)C(C)C
HEK293
  AC50: 183 µM (active)

## CCN(CC)S(=O)(=O)c1ccc(NC(=O)COC(=O)c2ccc(Br)o2)cc1
Cytochrome P450 1A2
  AC50: 0.316 µM (inconclusive)
Cytochrome P450 3A4
  AC50: inconclusive

## COC(=O)N1CCC2(CC1)CN(c1ccccc1)C2
Cytochrome P450 3A4
  AC50: inconclusive

## C[C@H]1O[C@@H](O[C@H]2[C@@H](O)C[C@H](O[C@H]3[C@@H](O)C[C@H](O[C@H]4CC[C@@]5(C)[C@H](CC[C@@H]6[C@@H]5C[C@@H](O)[C@]5(C)[C@@H](C7=CC(=O)OC7)CC[C@]65O)C4)O[C@@H]3C)O[C@@H]2C)C[C@H](O)[C@@H]1O [DIGOXIN]
[10]
  EC50: < 0.1 µM (active)
[11]
  EC50: < 0.1 µM (active)
Vero [2]
  CC50: 0.37 µM (active)
Vero [2]; Chlorocebus sabaeus, Vero
  CC50: 0.3 µM (active)
[12]
  EC50: < 0.1 µM (active)
Vero [13]
  IC50: < 0.05 µM (active)
BJ
  EC50: < 0.104 µM (active)
Vero [14]
  CC50: 0.39 µM (active)
Paired box protein Pax-8
  AC50: 0.414 µM (active)

## Cn1c(=O)c(-c2ccccc2)nc2cnc(Oc3ccccc3)nc21
Cytochrome P450 2C9
  AC50: 12.6 µM (inconclusive)
Cytochrome P450 3A4
  AC50: inconclusive

## Cc1cc(C)c2ccc(N)nc2c1O
[15]
  EC50: > 150 µM (inconclusive)
[16]
  EC50: 3.15 µM (active)
Beta-galactosidase
  EC50: > 40 µM (inactive)
[17]
  EC50: > 38 µM (not active)
[9]
  IC50: 13.7 µM (active)
Streptococcus
  EC50: 9.09 µM (active)
[18]
  AC50: 9.58 µM (active)
H9c2
  IC50: > 79 µM (inactive)

## O=C(COc1ccccc1)OCC(=O)c1ccc(S(=O)(=O)N2CCCCC2)cc1
Beta-galactosidase
  EC50: > 40 µM (inactive)
[9]
  IC50: 16.9 µM (active)

## Cc1ccc(N(Cc2cc(O)nc3ccccc23)C(=O)CCl)c(C)c1
Vero [13]
  IC50: > 25 µM (active)
Vero [14]
  CC50: 7.95 µM (active)

From ChEMBL document CHEMBL1201862, “PubChem BioAssay data set” (2004)
